The values below come from BindingDB's records for doi:10.1002/cbic.201402673 (University of Groningen, 2015).

The target in the test is T1, Thiamine transporter ThiT (Lactococcus lactis subsp. cremoris (strain MG1363), UniProt A2RI47).
T1 sequence (A2RI47 whole entry): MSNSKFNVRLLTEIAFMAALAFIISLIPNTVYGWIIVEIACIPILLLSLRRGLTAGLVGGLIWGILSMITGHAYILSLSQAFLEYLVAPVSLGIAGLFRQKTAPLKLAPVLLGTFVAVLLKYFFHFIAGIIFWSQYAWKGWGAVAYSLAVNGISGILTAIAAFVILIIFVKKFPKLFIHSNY
As to the kind of experiment: Intrinsic-Fluorescence Titration. How it is done:
Purified ThiT was diluted in buffer E to a concentration of ~50 nM in a final volume of 800 µL. The substrates were added in 1 µL steps. Using an excitation wavelength of 280 nm, emission was measured at 350 nm and 25 °C. After each addition of substrate, 10 s were allowed for equilibration and mixing, and the signals were averaged over 15 s.
With `Cc1ncc(Cc2cccc(CCO)c2)c(N)n1` [2-(3-((4-Amino-2-methylpyrimidin-5-yl)methyl)phenyl)ethanol (8)], the Kd was found to be 266 nM. That is a sub-micromolar value. The figure for `Cc1ncc(Cc2csc(CCO)c2C)c(N)n1` [3-Deazathiamine] is 4.23 nM; for `Cc1ncc(Cc2csc(C=O)c2C)c(N)n1` [4-((4-Amino-2-methylpyrimidin-5-yl)methyl)-3-methylthiophene-2-carbaldehyde (9)] it is 7.44 nM. As for `Cc1ncc(Cc2cccc(CO)c2)c(N)n1` [(3-((4-Amino-2-methylpyrimidin-5-yl)methyl)phenyl)methanol (6)], the Kd worked out at 528 nM. As to `Cc1ncc(Cc2csc(CO)c2C)c(N)n1` [(4-((4-Amino-2-methylpyrimidin-5-yl)methyl)-3-methylthiophen-2-yl)methanol (7)], binding was put at a Kd of 5.21 nM.

The Kd is the concentration at which binding is half-saturated.
